According to paper PMC11206695, “Chemical Behavior and Bioactive Properties of Spinorphin Conjugated to 5,5′-Dimethyl- and 5,5′-Diphenylhydantoin Analogs” (Pharmaceuticals, 2024):
Marks after values point to notes of the source that are not given here.

Assays:
[1] = test system: ivPTZ-induced myoclonic, clonic and tonic seizures in mice; test: Intravenous pentylenetetrazole seizure (ivPTZ) test; assay type: in vivo; details: i.c.v., doses of 0.62 µg and 1.25 µg, vs. vehicle-infused control (p < 0.05; p < 0.01)
Procedure: (§1) The spinorphin peptide analogues (S, Dm-S, Dm-S5, and Dm-S6 or PhS, PhS5, and PhS6) were administered intracerebroventricularly (i.c.v.) (10 μL/ventricle) at doses of 0.6, 1.2, and 2.4 μg, respectively, using a 28-gauge stainless-steel needle attached to a 50-μL Hamilton® syringe as previously described. The matched group (control) was treated with a vehicle. The seizure test was performed 10 min after the i.c.v. infusion.
Intravenous Pentylenetetrazole Seizure (ivPTZ) Test The convulsant pentylenetetrazole (PTZ) (1%), dissolved in saline, was infused (0.005 mL/s) into a tail vein as previously performed. The activity to raise the threshold of ivPTZ-induced myoclonic, clonic, and tonic seizures and concentrations, quantity of infusion (mL), and mouse body weight were recorded.

[2] = test system: Escherichia coli; test: Antibacterial disc diffusion; assay type: cell-based; details: 20 µL of 50 mg/mL on 6 mm disc, 24 h, 37 °C
Procedure: Antibacterial activity is carried out with reference to the slightly modified method of Murray et al.. The bacteria used were Staphylococcus aureus, Escherichia coli, and Bacillus cereus. To test the antibacterial activity of 6 peptides, it is carried out as follows: taking 100 μL of spectrum bacteria ([…] bacteria) spread on the nutrient agar medium (NA). Furthermore, a paper disc (6 mm in diameter) was placed and then 20 μL of extract with a concentration of 50 mg/mL was dripped onto it. As a positive control, we used […] of chloramphenicol on the paper disc. DMSO 10% is used as a negative control according to peptide solvents. The treatment was repeated three times and then incubated for 24 h at a temperature of 37 °C. After that, an inhibitory power test measurement was carried out by measuring the diameter of the clear zone formed.

[3] = Potentiometric titration for pK and pI; assay type: physicochemical; details: 12 µmol peptide, room temperature
Procedure: Potentiometric titrations were performed to determine acid–base constants at room temperature using a potentiometric cell with a combined glass electrode and OMINS titration system (Metrohm). An OMNIS Digital Burette with an accuracy of ±0.01 mL was used to precisely add the titrant portions to the titrated aliquot (12 µmol) of the stock solution of the peptide compounds. The potentiometric titration results were processed mathematically to construct the titration curves and calculate the acid–base constants according to […] [16]. Isoelectric points correspond to pH points where the analyte and titrant interact in equimolar amounts (pH at the equivalence point).

[4] = test system: generalized seizures (MES test) in mice; test: Maximal electroshock (MES) test; assay type: in vivo; details: i.c.v.
Procedure: as §1
The generalized seizures were induced through a stronger stimulus of 50 mA, 60 Hz, 0.2 s, applied via the same corneal electrodes, in each mouse tested. The suppression of tonic hind limb extension, replaced by a clonic seizure, was accepted as a valid criterion for the anticonvulsant potency of the drug.

[5] = test system: psychomotor seizures (6-Hz test) in mice; test: 6-Hz test; assay type: in vivo; details: i.c.v.; for No. of Animals Protected/No. of Animals Tested: 10 min after infusion
Procedure: as §1
6-Hz test. Psychomotor seizures were induced by corneal electrodes (constant current shock generator, 32 mA, 6 Hz, 3 s) as previously described. The return to a normal position, 10 s after stimulation, was used as a criterion for protection against psychomotor seizures.

[6] = isoelectric point = pH at equivalence point, potentiometric titration
[7] = potentiometric titration with NaOH, aqueous

Substance: H-LVVYPWT-NH2 [S, H-Leu-Val-Val-Tyr-Pro-Trp-Thr-NH2]
- Activity against myoclonic twitching, clonic seizures and forelimb tonic seizures (ivPTZ) [1]: anticonvulsant activity
- Antibacterial activity against E. coli (inhibitory zone, in words) [2]: outperformed peptide analogues
- pI1 [3, 6]: 4.91
- pI2 [3, 6]: 8.31
- pKa1 [3, 7]: 3.15
- pKa2 [3, 7]: 6.78
- % Mortality ([4]; MES test, dose 0.62 µg/10 µL): 0%
- % Mortality ([4]; MES test, dose 1.25 µg/10 µL): 30%
- % Mortality ([4]; MES test, dose 2.5 µg/10 µL): 50%
- % Protection ([4]; MES test, dose 2.5 µg/10 µL): 50%
- No. of Animals Protected/No. of Animals Tested ([4]; MES test, dose 2.5 µg/10 µL, 10 min after infusion): 3/6
- Activity in the MES test (in words) ([4]; text summary of Tables 4 and 5): inactive
- % Protection ([5]; dose 0.62 µg/10 µL): 50%
- No. of Animals Protected/No. of Animals Tested ([5]; dose 0.62 µg/10 µL): 3/6
- % Protection ([5]; dose 1.25 µg/10 µL): 50%
- No. of Animals Protected/No. of Animals Tested ([5]; dose 1.25 µg/10 µL): 3/6
- % Protection ([5]; dose 2.5 µg/10 µL): 67% *
- No. of Animals Protected/No. of Animals Tested ([5]; dose 2.5 µg/10 µL): 4/6
